Results from patent publication US20250228835A1, “PYRIDINYLOXYPYRIDINES AND RELATED COMPOUNDS AND THEIR USE IN TREATING MEDICAL CONDITIONS” (Rectify Pharmaceuticals, Inc., priority 2024, published 2025).

Assays:
ABCC6 WT = biological target: T1, ABCC6 WT (Homo sapiens, UniProt O95255); test: ABCC6 WT assay: HiBit protein expression; format: cell-based; settings: HEK-293 cells transiently expressing HiBit-tagged ABCC6 WT; 24 h treatment; top concentration 20 μM; read-out: ABCC6 WT EC50, Emax
T1 construct: expressed in transfected cells; host or cells: HEK-293 (transient, Lipofectamine 2000)
T1 sequence (O95255 whole entry): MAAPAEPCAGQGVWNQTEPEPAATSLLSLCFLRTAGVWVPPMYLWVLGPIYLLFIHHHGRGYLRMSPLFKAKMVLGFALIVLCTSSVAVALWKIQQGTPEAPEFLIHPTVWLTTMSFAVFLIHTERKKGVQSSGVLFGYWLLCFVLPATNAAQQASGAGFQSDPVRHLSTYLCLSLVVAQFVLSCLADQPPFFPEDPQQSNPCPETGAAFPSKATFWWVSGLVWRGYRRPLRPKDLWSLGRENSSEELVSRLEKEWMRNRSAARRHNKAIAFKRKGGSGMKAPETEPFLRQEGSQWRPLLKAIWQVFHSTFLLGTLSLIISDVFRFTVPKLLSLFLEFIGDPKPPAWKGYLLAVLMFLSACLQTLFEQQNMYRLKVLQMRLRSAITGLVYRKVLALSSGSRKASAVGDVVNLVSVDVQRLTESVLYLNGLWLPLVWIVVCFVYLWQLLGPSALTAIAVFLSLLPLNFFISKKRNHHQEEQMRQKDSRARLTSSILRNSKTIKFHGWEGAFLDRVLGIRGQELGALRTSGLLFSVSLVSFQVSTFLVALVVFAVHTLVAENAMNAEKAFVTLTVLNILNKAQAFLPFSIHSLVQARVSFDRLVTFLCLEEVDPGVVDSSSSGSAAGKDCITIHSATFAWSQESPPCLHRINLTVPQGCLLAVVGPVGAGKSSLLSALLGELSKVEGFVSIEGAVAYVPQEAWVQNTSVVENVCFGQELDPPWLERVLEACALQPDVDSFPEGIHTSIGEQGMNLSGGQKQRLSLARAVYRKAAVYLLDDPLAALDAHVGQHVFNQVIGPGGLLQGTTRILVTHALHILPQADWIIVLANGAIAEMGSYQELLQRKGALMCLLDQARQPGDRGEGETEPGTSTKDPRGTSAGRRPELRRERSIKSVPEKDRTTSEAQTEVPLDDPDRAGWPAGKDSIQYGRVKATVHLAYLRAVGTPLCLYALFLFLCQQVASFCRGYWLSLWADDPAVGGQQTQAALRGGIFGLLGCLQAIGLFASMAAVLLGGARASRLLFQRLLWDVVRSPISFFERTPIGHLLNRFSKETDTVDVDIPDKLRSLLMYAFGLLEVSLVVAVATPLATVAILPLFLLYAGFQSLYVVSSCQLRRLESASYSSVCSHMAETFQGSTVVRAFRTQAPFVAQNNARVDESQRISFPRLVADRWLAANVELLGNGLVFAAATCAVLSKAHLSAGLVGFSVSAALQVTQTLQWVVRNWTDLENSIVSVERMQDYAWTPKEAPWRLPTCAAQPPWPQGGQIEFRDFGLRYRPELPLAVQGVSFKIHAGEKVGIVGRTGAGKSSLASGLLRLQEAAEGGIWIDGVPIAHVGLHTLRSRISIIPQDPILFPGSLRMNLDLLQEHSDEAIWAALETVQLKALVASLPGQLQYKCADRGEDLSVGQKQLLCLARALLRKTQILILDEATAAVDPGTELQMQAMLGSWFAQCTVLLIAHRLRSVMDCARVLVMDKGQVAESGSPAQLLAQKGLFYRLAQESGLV
Summary of the method: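 HEK-293 cells transiently transfected with HiBit-tagged human ABCC6 WT cDNA, seeded 24 h post-transfection, treated 24 h at 37° C with ten 2-fold doses (top 20 μM final, 0.15% DMSO). HiBit lytic luminescence reports protein expression; Emax and EC50 derived.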

ABCD2 WT = biological target: T2, ABCD2 WT (Homo sapiens, UniProt Q9UBJ2); test: D2 correction dose-response assay: ABCD2 WT HiBit protein expression; format: cell-based; settings: HEK-293/ABCD2 WT cells, 24 hours treatment, HiBit luminescence; class combines EC50 and Mean MaxAct (fold); read-out: ABCD2 WT EC50, Emax
T2 construct: expressed in transfected cells
T2 sequence (Q9UBJ2 1-740): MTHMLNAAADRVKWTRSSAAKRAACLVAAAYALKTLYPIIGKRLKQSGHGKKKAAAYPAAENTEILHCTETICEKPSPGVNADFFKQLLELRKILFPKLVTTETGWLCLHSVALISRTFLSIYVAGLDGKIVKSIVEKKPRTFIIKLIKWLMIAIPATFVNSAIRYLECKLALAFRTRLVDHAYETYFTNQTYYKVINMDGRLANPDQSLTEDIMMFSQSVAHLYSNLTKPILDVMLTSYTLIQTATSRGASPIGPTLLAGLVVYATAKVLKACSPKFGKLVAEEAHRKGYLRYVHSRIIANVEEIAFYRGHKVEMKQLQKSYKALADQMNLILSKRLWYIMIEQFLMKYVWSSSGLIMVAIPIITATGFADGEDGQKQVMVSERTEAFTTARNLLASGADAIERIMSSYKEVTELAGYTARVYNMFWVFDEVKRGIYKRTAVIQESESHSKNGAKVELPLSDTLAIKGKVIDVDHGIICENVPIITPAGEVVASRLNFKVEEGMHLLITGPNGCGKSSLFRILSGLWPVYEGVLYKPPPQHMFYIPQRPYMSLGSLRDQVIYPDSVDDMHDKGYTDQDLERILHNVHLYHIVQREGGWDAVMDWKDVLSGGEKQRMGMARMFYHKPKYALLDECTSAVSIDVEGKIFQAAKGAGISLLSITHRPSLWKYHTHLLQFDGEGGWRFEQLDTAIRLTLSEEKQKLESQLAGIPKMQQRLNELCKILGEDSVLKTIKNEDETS
Summary of the method: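 HEK-293 cells stably expressing HiBit-tagged human ABCD2 WT were treated with 11 doses (3-fold dilutions, top final 30 μM, 0.3% DMSO) for 24 h at 37 °C. Expression was measured by HiBit lytic luminescence after 1 h at 25 °C, giving EC50 and Emax.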

EC50 (ABCC6 WT) [µM] | EC50 (ABCD2 WT) [µM] | Compound
< 1 | < 1 | CNS(=O)(=O)c1ccc(-c2cncc(Cl)c2)nc1Oc1c(C)cc(C)cc1C1CC1 [Compound I-77]
≥ 25 | < 1 | Cc1cc(C)c(Oc2nc(-c3cncc(Cl)c3)ccc2NS(=O)(=O)Cc2ccccn2)c(C)c1 [Compound I-62]
1 to 10 | 10 to 25 | Cc1cc(C)c(Oc2nc(-c3cncc(Cl)c3)ccc2N2CCCCS2(=O)=O)c(C)c1 [Compound I-66]
< 1 | > 25 | COc1ccc2nc[nH]c2c1S(=O)(=O)Nc1ccc(-c2cncc(Cl)c2)nc1Oc1c(C)cc(C)cc1C [Compound I-63]
